Measured values: publication PMC8294059, “Identification and Immune Assessment of T Cell Epitopes in Five Plasmodium falciparum Blood Stage Antigens to Facilitate Vaccine Candidate Selection and Optimization” (Frontiers in Immunology, 2021)
Read-outs that look alike come from different tables or passages of the source. Where a SMILES comes first, the peptide text is derived from it.

Columns and labels:
HLA-A*0201 = HLA-A*0201 (Homo sapiens, UniProt P04439, D140Y/D185E/D98H/E176V/E277Q/G131W/G231S/I119V/I121R/I166T/I218V/L300P/L318F/N151K/N90K/P208A/P217A/Q86G/Q94H/R138H/R169H/T345S); experiment: In vitro class I HLA binding assay (fluorescence polarization competition); conditions: allele A*0201; fluorescence polarization competition; read-out: IC50 (nM), in vitro HLA binding affinity
Description: A cell-free class I HLA binding assay that allows for in vitro quantification of peptide-HLA binding affinity in a competition format was used. In this assay, a fluorescently labeled, high binding, control peptide is loaded onto 384-well ½-area plates along with unlabeled experimental peptides. To remove endogenous peptides and render the HLA A and B molecules receptive to binding, HLA is heated at 53°C for 15 minutes and immediately added to the assay. The mixture is then allowed to stand for three days. Once the mixture has reached steady equilibrium (at 72 hours), displacement of the high binding control peptide is measured through fluorescence polarization. Binding of experimental peptides is expressed as the percent inhibition of the labeled control peptide (experimental fluorescence / control fluorescence, multiplied by 100). The percent inhibition values for each experimental peptide (across a range of molar concentrations) are used to calculate the concentration which inhibits 50% of the labeled control peptide’s specific binding. This value is referred to as the peptide’s IC50.

HLA-DRB1*1101 = HLA-DRB1*1101 (Homo sapiens, UniProt P01903+P01911, A100R/A169T/A87E/I96F/K41T/L162R/M171V/P40S/Q125H/Q178H/Q39Y/Q99D/R42S/S66Y/T262R/V115G/W38E); experiment: biochemical; format: binding; conditions: binding inhibition assay; NB = non-binder (no dose-dependent inhibition); read-out: DRB1*1101 IC50
Chain of HLA-DRB1*1101 (P01903 26-254 limits assumed, other chains not shown): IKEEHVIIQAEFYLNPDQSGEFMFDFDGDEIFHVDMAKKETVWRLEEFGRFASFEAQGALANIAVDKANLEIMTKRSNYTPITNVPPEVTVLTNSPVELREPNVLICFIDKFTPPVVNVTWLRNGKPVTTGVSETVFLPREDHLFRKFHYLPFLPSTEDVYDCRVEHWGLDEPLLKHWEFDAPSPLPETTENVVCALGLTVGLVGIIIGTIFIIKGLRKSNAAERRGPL
Description: (§1) The binding assay conducted by EpiVax yields an indirect measure of peptide-MHC affinity as it utilizes a competition assay format per the methodology described in Steere et al. ([35]). […] Post incubation, the mixtures are moved to a 96-well plate coated with anti-HLA-DR antibody to capture HLA-peptide complexes. Time-resolved fluorescence measurement of the bound labeled reference peptide complex present in each mixture is detected with a europium-linked probe via fluorescent spectrophotometry using a SpectraMax M5 system. HLA binding affinity of each test peptide is expressed as the percent inhibition of reference peptide binding. Percent inhibition values (across the test peptide titration range) are used to calculate the half maximal inhibitory concentration (IC50) of each test peptide. For these studies, test peptides were assessed using a range of final concentrations from 100,000 nM to 100 nM. The panel of commercially-available HLA-DRB1 allele monomers used includes: *0101, *0301, *0401, *0701, *0801, *1101, *1301 and *1501. EpiVax established HLA-DRB1 binding affinity cutoffs were used to rank the IC50 values.
(§2) In vitro HLA binding assays (step 2 of workflow shown in Figure 1 ) were carried out with the synthesized peptides to verify the EpiMatrix outputs and provide a measure of accuracy for comparing in silico-predicted HLA-DRB1 allele binding to laboratory assessments of HLA-DRB1 allele binding. These assessments were conducted using a competition assay format whereby IC50 values were calculated based on the ability of the test peptide to compete with a labeled, high binding affinity reference peptide for HLA-DRB1 molecule binding. Sequences for the high affinity reference peptides and the negative control peptide, known not to bind any of the HLA-DRB1 molecules, are provided in Table S18 .

HLA-DRB1*1301 = HLA-DRB1*1301 (Homo sapiens, UniProt P01903+P01911, A100E/A169T/K41T/L162R/M171V/P40S/Q125H/Q178H/Q39Y/Q99D/R42S/S66N/T262R/W38E/Y61H); experiment: biochemical; format: binding; conditions: read-out: DRB1*1301 IC50
Description: as §1, §2

HLA-DRB1*1501 = target: T1, HLA-DRB1*1501 (Homo sapiens, UniProt P01903+P01911); experiment: biochemical; format: binding
T1 construct: purchased
Description: as §1, §2

HLA-DRB1*0101 = target: T2, HLA-DRB1*0101 (Homo sapiens, UniProt P01903+P01911, A100R/D57E/F55L/F60I/F76Y/I96L/L162R/M171V/P40L/Q125E/R42F/V115G/Y59C); experiment: biochemical; format: binding
T2 construct: purchased
Description: as §1, §2

HLA-DRB1*0701 = HLA-DRB1*0701 (Homo sapiens, UniProt P01903+P01911, A100R/A102G/A103Q/D57E/D86V/E43K/F76Y/K127E/L162R/M171V/P40G/Q125H/Q99D/R33Q/R42Y/R54Q/S133A/S66F/T210M/V115G/Y107V/Y59L/Y89S); experiment: biochemical; format: binding
Description: as §1, §2

HLA-DRB1*0801 = HLA-DRB1*0801 (Homo sapiens, UniProt P01903+P01911, A100R/A103L/A169T/D86S/F76Y/H45Y/I96F/K41T/L162R/M171V/P40S/Q125H/Q178H/Q39Y/Q99D/R218S/R42G/S66Y/V115G/W38E); experiment: biochemical; format: binding
Description: as §1, §2

[1] = binding inhibition assay, NB = non-binder (no dose-dependent inhibition)
[2] = binding inhibition assay, NB = non-binder (no dose-dependent inhibition), read-out: DRB1*1501 IC50
[3] = binding inhibition assay, NB = non-binder (no dose-dependent inhibition), read-out: DRB1*0101 IC50
[4] = binding inhibition assay, NB = non-binder (no dose-dependent inhibition), read-out: DRB1*0701 IC50
[5] = binding inhibition assay, NB = non-binder (no dose-dependent inhibition), read-out: DRB1*0801 IC50

Compound | IC50 (HLA-DRB1*1101) [µM] | IC50 (HLA-DRB1*1301; [1]) [µM] | IC50 (HLA-DRB1*1501; [2]) [µM] | IC50 (HLA-DRB1*0101; [3]) [µM] | IC50 (HLA-DRB1*0701; [4]) [µM] | IC50 (HLA-DRB1*0801; [5]) [µM] | also measured
CC[C@H](C)[C@H](NC(=O)[C@H](CCSC)NC(=O)[C@@H](N)CO)C(=O)N[C@@H](CCCCN)C(=O)N[C@@H](CO)C(=O)N[C@@H](C)C(=O)N[C@@H](Cc1ccccc1)C(=O)N[C@@H](CC(C)C)C(=O)N1CCC[C@H]1C(=O)N[C@H](C(=O)O)[C@@H](C)O [AMA1_373] (H-SMIKSAFLPT-OH) | – | – | – | – | – | – | IC50 (HLA-A*0201): 12500 nM
CC[C@H](C)[C@H](NC(=O)[C@H](CC(N)=O)NC(=O)[C@H](CC(N)=O)NC(=O)[C@H](CCCCN)NC(=O)[C@H](Cc1c[nH]cn1)NC(=O)[C@H](CCC(=O)O)NC(=O)[C@H](CO)NC(=O)[C@H](CC(C)C)NC(=O)[C@H](CCSC)NC(=O)[C@H](C)NC(=O)[C@H](CCC(=O)O)NC(=O)[C@H](Cc1c[nH]c2ccccc12)NC(=O)[C@H](CC(C)C)NC(=O)[C@H](CCCCN)NC(=O)[C@H](CCC(=O)O)NC(C)=O)C(=O)N[C@@H](CC(N)=O)C(=O)N[C@@H](CC(N)=O)C(N)=O [EBA175_008] (Ac-EKLWEAMLSEHKNNINN-NH2) | > 100 | > 100 | 80.6 | 5.61 | – | – | –
CC[C@H](C)[C@H](NC(=O)[C@H](CCSC)NC(=O)[C@H](CO)NC(=O)[C@H](C)N)C(=O)N[C@@H](CCCCN)C(=O)N[C@@H](CO)C(=O)N[C@@H](C)C(=O)N[C@@H](Cc1ccccc1)C(=O)N[C@@H](CC(C)C)C(=O)N1CCC[C@H]1C(=O)N[C@H](C(=O)NCC(=O)N[C@@H](C)C(=O)N[C@@H](Cc1ccccc1)C(=O)N[C@@H](CCCCN)C(N)=O)[C@@H](C)O [AMA1_006B] (H-ASMIKSAFLPTGAFK-NH2) | – | > 100 | 14.5 | 3.22 | 1.52 | – | –
CC[C@H](C)[C@H](NC(=O)[C@H](CCSC)NC(=O)[C@H](CO)NC(=O)[C@H](C)NC(=O)[C@H](CC(N)=O)NC(=O)[C@H](CCCCN)NC(=O)[C@H](CC(N)=O)NC(=O)[C@H](CCCCN)NC(=O)[C@H](Cc1ccccc1)NC(=O)CNC(=O)[C@H](CCC(=O)O)NC(=O)[C@H](CCCCN)NC(C)=O)C(=O)N[C@@H](CCCCN)C(=O)N[C@@H](CO)C(=O)N[C@@H](C)C(=O)N[C@@H](Cc1ccccc1)C(=O)N[C@@H](CC(C)C)C(=O)N1CCC[C@H]1C(=O)N[C@H](C(=O)NCC(=O)N[C@@H](C)C(=O)N[C@@H](Cc1ccccc1)C(=O)N[C@@H](CCCCN)C(N)=O)[C@@H](C)O [AMA1_006C] (Ac-KEGFKNKNASMIKSAFLPTGAFK-NH2) | – | – | – | – | – | – | IC50 (HLA-DRB1*0801): 50.4 µM; IC50 (HLA-DRB1*1301): > 100 µM; IC50 (HLA-DRB1*0701): 1.29 µM; IC50 (HLA-DRB1*1501): 2.04 µM; IC50 (HLA-DRB1*0101): 1.2 µM
CC[C@H](C)[C@H](NC(=O)[C@H](CO)NC(=O)[C@H](CCCCN)NC(=O)[C@H](Cc1ccccc1)NC(=O)[C@H](CCC(=O)O)NC(=O)[C@H](CO)NC(=O)[C@H](Cc1ccc(O)cc1)NC(=O)[C@H](CCSC)NC(=O)[C@H](CCCCN)NC(=O)[C@H](Cc1ccc(O)cc1)NC(=O)[C@H](CC(N)=O)NC(=O)[C@H](CC(N)=O)NC(=O)CNC(=O)[C@H](CCCCN)NC(=O)[C@H](CCC(N)=O)NC(=O)[C@H](Cc1ccc(O)cc1)NC(=O)[C@H](CCC(=O)O)NC(=O)[C@H](CCC(N)=O)NC(=O)[C@H](Cc1ccc(O)cc1)NC(C)=O)C(=O)N[C@@H](CCCCN)C(N)=O [EBA175_012] (Ac-YQEYQKGNNYKMYSEFKSIK-NH2) | – | – | 29.4 | 0.226 | 14 | 33.2 | –
CC[C@H](C)[C@H](NC(C)=O)C(=O)N[C@@H](CC(C)C)C(=O)N[C@@H](C)C(=O)N[C@H](C(=O)N[C@@H](C)C(=O)N[C@H](C(=O)N[C@@H](Cc1ccc(O)cc1)C(=O)N[C@@H](CCC(=O)O)C(=O)N[C@@H](CO)C(=O)N[C@@H](CCCNC(=N)N)C(=O)N[C@H](C(=O)N[C@@H](CC(C)C)C(=O)N[C@@H](CCCCN)C(=O)N[C@@H](CCCNC(=N)N)C(=O)N[C@@H](CCCCN)C(=O)N[C@@H](Cc1ccc(O)cc1)C(=O)N[C@@H](CCCCN)C(=O)N[C@@H](CC(N)=O)C(=O)N[C@@H](CCCCN)C(=O)N[C@@H](CC(=O)O)C(=O)N[C@@H](CC(=O)O)C(=O)N[C@@H](CCCCN)C(=O)N[C@@H](CCC(=O)O)C(N)=O)[C@@H](C)CC)[C@@H](C)CC)[C@@H](C)CC [EBA175_010] (Ac-ILAIAIYESRILKRKYKNKDDKE-NH2) | 44.2 | 4.41 | 0.035 | 0.27 | 6.27 | 17.6 | –
CC[C@H](C)[C@H](NC(=O)[C@H](CC(C)C)NC(=O)[C@H](CCCCN)NC(=O)[C@H](CCCCN)NC(=O)[C@H](CCCCN)NC(=O)[C@H](CCCCN)NC(=O)[C@@H](NC(=O)[C@H](CC(N)=O)NC(=O)[C@H](Cc1ccc(O)cc1)NC(=O)[C@H](CCC(=O)O)NC(=O)[C@H](CC(=O)O)NC(C)=O)[C@@H](C)O)C(=O)N[C@@H](CCCCN)C(=O)N[C@@H](CS)C(=O)N[C@H](C(=O)N[C@@H](CCCCN)C(=O)N[C@@H](CC(N)=O)C(=O)N[C@@H](Cc1c[nH]cn1)C(=O)N[C@@H](CCC(=O)O)C(=O)N[C@@H](CC(N)=O)C(=O)N[C@@H](CC(=O)O)C(=O)N[C@@H](Cc1ccccc1)C(=O)N[C@@H](CC(N)=O)C(N)=O)[C@@H](C)CC [RH5_008] (Ac-DEYNTKKKKLIKCIKNHENDFN-NH2) | – | – | 5.14 | 1 | – | 2.6 | –
CC[C@H](C)[C@H](NC(=O)[C@H](Cc1ccc(O)cc1)NC(=O)[C@H](CCC(=O)O)NC(=O)[C@H](CC(=O)O)NC(=O)[C@H](Cc1ccc(O)cc1)NC(C)=O)C(=O)N[C@@H](Cc1c[nH]cn1)C(=O)N[C@@H](CCCCN)C(=O)N[C@@H](CC(C)C)C(=O)N[C@H](C(=O)N[C@@H](CC(C)C)C(=O)N[C@@H](CO)C(=O)N[C@H](C(=O)N[C@@H](CCCCN)C(=O)N[C@@H](CO)C(=O)N[C@@H](CCCCN)C(=O)N[C@@H](CC(N)=O)C(=O)N[C@@H](CC(C)C)C(=O)N[C@@H](CC(N)=O)C(=O)N[C@@H](CCCCN)C(=O)N[C@@H](CC(=O)O)C(=O)N[C@@H](CC(C)C)C(=O)N[C@@H](CO)C(N)=O)C(C)C)[C@@H](C)CC [RH5_009] (Ac-YDEYIHKLILSVKSKNLNKDLS-NH2) | 10.5 | 88.8 | 0.01 | 0.043 | 0.381 | 6.46 | –
